The record followed here is publication PMC6199744, “Development of Chemical Proteomics for the Folateome and Analysis of the Kinetoplastid Folateome” (ACS Infectious Diseases, 2018).

Where two headings read alike, the source gives them in different places.

Holding throughout (assay type): binding
Assay [1] deals with T1, HeLa cell extract proteins (Homo sapiens, UniProt O95816).
T1 construct: endogenous in cells; host or cells: HeLa cell extract

The target in assay [2] is T2, HeLa cell extract proteins (Homo sapiens, UniProt P11177).
T2 construct: endogenous in cells; host or cells: HeLa cell extract
T2 sequence (P11177 31-359): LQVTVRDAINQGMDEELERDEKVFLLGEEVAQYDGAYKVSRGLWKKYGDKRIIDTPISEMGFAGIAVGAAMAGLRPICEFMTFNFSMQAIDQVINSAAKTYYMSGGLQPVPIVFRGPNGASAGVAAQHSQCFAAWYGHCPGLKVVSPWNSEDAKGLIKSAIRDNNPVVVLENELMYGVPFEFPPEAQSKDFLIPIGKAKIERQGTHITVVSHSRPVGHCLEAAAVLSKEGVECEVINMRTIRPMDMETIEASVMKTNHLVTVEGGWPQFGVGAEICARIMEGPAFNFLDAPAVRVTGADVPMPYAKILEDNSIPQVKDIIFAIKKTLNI

Assay [3] concerns the target T3, HeLa cell extract proteins (Homo sapiens, UniProt P16615).
T3 construct: endogenous in cells; host or cells: HeLa cell extract

For assay [4], the target named is T4, HeLa cell extract proteins (Homo sapiens, UniProt P20618).
T4 construct: endogenous in cells; host or cells: HeLa cell extract
T4 sequence (P20618 29-241): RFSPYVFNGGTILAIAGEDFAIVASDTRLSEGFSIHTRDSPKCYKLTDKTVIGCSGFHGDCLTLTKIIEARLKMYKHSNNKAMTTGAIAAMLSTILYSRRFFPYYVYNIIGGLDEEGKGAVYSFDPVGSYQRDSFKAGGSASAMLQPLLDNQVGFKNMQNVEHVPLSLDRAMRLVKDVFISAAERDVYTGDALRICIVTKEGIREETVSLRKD

Assay [5] concerns the target T5, HeLa cell extract proteins (Homo sapiens, UniProt P25788).
T5 construct: endogenous in cells; host or cells: HeLa cell extract
T5 sequence (P25788 1-255): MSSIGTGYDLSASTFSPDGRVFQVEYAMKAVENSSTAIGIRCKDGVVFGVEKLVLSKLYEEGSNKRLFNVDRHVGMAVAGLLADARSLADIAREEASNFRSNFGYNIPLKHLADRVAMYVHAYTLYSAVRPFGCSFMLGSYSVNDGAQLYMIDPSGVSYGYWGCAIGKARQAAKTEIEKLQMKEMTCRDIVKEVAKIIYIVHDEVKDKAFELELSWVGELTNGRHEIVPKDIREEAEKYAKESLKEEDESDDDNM

The target of assay [6] is T6, HeLa cell extract proteins (Homo sapiens, UniProt P35080).
T6 construct: endogenous in cells; host or cells: HeLa cell extract
T6 sequence (P35080 1-140): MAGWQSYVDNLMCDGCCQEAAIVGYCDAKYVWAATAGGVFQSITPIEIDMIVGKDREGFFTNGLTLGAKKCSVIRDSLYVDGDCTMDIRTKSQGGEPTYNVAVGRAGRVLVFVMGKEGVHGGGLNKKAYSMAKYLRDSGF

Assay [7] deals with T7, HeLa cell extract proteins (Homo sapiens, UniProt P35680).
T7 construct: endogenous in cells; host or cells: HeLa cell extract

The target of assay [8] is T8, HeLa cell extract proteins (Homo sapiens, UniProt P62979).
T8 construct: endogenous in cells; host or cells: HeLa cell extract

The target in assay [9] is T9, HeLa cell extract proteins (Homo sapiens, UniProt Q63HN8).
T9 construct: endogenous in cells; host or cells: HeLa cell extract

The target of assay [10] is T10, HeLa cell extract proteins (Homo sapiens, UniProt Q6P1J9).
T10 construct: endogenous in cells; host or cells: HeLa cell extract

Assay [11] deals with T11, HeLa cell extract proteins (Homo sapiens, UniProt Q709F0).
T11 construct: endogenous in cells; host or cells: HeLa cell extract
T11 sequence (Q709F0 1-780): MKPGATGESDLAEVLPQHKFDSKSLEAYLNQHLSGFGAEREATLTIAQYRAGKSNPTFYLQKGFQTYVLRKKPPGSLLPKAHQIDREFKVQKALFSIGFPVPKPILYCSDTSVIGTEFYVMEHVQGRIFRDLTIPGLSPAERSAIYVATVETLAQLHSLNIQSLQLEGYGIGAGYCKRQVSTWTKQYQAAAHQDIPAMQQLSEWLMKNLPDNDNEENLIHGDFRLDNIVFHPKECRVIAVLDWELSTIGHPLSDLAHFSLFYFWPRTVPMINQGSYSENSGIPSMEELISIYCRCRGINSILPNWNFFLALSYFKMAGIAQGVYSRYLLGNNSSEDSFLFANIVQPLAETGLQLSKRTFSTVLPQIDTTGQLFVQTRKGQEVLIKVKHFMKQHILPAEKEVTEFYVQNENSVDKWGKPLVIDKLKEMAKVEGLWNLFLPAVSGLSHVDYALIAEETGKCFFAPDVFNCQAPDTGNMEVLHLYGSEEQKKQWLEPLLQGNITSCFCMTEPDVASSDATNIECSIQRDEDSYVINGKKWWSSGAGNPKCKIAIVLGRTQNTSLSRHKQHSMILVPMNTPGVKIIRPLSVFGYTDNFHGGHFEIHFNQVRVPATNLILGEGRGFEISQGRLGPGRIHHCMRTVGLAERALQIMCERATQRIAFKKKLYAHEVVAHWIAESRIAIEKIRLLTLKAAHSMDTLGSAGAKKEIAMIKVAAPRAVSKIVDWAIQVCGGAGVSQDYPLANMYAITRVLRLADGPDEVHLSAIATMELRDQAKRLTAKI

For assay [12], the target named is T12, HeLa cell extract proteins (Homo sapiens, UniProt Q7Z3U7).
T12 construct: endogenous in cells; host or cells: HeLa cell extract

Assay [13] concerns the target T13, HeLa cell extract proteins (Homo sapiens, UniProt Q9Y679).
T13 construct: endogenous in cells; host or cells: HeLa cell extract
T13 sequence (Q9Y679 1-410): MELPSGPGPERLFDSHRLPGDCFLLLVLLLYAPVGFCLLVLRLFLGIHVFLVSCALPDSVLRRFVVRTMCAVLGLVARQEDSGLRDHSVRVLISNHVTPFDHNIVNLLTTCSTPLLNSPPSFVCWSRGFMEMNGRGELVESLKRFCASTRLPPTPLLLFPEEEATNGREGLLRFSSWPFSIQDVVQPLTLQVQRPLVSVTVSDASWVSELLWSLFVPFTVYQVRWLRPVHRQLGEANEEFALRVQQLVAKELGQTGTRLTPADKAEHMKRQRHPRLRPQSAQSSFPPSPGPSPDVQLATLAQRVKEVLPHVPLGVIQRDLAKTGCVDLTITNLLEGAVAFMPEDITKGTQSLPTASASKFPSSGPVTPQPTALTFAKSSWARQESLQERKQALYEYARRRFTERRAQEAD

Where [14] appears, read: HeLa, protein PDHB (ISOFORM 1 OF PYRUVATE DEHYDROGENASE E1 COMPONENT SUBUNIT BETA, MITOCHONDRIAL PRECURSOR).

T12 sequence (Q7Z3U7 whole entry): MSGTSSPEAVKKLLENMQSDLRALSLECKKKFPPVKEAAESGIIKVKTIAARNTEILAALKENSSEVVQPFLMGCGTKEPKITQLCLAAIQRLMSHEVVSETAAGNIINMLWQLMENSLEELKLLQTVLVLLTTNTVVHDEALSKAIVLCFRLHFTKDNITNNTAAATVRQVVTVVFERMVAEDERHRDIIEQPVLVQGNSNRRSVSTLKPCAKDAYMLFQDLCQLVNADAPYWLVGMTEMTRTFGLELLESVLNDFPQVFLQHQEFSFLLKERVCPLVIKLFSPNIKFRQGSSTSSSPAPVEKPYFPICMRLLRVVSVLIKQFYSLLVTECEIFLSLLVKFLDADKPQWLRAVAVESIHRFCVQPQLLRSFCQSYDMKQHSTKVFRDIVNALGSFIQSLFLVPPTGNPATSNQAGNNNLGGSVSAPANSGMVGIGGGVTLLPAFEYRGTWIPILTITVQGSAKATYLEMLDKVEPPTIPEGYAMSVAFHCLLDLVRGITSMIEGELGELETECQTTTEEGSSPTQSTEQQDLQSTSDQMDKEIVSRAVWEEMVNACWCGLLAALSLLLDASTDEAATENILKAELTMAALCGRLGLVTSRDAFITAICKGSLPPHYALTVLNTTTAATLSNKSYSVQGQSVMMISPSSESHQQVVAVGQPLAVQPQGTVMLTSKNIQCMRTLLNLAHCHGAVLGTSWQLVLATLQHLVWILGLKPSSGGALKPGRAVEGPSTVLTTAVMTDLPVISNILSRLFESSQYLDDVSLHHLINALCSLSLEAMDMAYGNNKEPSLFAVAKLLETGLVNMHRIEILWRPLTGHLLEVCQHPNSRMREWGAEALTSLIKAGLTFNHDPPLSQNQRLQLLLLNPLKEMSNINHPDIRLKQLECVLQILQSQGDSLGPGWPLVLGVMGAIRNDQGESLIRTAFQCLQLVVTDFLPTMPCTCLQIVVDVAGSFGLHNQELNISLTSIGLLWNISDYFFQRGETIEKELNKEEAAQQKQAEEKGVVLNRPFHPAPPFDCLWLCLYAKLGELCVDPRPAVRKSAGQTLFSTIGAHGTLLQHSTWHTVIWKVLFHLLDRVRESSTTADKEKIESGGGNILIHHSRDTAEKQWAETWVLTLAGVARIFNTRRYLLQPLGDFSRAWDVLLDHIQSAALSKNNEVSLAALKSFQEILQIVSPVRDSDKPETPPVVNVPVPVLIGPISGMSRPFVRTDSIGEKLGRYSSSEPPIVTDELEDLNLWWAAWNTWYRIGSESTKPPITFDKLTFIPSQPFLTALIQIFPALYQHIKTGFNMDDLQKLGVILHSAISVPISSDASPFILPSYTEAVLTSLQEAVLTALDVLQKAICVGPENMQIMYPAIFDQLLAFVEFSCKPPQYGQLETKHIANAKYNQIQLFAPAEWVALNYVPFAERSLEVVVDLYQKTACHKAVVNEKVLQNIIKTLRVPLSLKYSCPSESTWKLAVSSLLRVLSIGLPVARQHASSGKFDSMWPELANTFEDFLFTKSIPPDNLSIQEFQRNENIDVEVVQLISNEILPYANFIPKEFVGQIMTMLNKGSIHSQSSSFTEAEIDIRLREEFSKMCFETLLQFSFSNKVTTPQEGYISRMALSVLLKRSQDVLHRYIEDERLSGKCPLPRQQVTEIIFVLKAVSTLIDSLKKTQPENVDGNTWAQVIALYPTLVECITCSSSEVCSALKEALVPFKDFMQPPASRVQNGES
T3 sequence (P16615 whole entry): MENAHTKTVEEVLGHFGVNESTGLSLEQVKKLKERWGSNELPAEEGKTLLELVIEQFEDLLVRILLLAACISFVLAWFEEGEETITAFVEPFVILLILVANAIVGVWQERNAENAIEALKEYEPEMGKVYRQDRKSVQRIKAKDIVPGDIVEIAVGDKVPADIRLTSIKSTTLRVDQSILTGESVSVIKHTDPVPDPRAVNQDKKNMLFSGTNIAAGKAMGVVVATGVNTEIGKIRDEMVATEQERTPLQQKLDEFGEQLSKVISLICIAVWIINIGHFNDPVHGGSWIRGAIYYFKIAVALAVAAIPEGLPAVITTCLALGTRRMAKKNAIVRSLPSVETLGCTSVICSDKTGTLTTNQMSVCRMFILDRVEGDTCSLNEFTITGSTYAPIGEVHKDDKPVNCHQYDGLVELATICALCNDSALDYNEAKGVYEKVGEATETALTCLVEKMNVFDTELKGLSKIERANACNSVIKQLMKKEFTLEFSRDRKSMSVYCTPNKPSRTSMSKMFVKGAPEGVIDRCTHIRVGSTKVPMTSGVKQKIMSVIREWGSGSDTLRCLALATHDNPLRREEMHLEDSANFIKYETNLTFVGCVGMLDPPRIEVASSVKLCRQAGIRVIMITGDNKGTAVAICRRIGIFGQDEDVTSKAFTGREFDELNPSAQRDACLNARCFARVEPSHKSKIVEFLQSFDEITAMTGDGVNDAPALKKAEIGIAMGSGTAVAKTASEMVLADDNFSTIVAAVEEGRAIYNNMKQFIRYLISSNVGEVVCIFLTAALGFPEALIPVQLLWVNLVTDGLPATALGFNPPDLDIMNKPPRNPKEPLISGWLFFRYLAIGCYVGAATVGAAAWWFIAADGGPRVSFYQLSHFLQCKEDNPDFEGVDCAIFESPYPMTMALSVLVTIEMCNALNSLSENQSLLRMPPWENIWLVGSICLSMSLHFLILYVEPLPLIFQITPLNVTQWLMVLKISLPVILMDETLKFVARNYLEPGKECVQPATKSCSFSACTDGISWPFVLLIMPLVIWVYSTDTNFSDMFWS
T1 sequence (O95816 whole entry): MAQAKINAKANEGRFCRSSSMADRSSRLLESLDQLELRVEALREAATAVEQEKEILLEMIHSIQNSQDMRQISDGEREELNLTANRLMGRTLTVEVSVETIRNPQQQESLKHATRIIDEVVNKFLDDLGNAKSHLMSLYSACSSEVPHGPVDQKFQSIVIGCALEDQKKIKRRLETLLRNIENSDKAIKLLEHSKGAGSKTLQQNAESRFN
T7 sequence (P35680 whole entry): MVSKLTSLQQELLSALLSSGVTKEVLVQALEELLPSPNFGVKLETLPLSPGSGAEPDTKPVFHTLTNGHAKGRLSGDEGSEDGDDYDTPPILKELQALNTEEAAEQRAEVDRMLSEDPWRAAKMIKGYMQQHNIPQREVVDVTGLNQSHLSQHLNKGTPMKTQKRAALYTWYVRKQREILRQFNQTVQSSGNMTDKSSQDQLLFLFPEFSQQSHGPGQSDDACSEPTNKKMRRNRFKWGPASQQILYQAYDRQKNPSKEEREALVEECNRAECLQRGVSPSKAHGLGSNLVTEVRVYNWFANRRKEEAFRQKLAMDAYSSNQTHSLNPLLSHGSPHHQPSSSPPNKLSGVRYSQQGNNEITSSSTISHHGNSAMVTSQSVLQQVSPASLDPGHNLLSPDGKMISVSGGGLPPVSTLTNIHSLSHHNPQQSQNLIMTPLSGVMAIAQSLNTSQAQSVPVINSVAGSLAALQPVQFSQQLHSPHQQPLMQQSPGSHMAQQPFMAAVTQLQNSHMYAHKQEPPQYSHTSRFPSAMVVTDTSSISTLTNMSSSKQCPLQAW

For `Nc1nc2cccc(-c3ccccc3)c2n1Cc1ccc(Cl)c(Cl)c1` [compound 3], the “fold changes relative to vehicle control” value in assay [1] (captured protein BAG2, HeLa) is 0.88; in [2] (protein PDHB, HeLa), 0.99; in assay [3] (HeLa, protein ATP2A2) it was 0.98; in [4] (protein PSMB1, HeLa), 0.92; in assay [5] (protein PSMA3, HeLa), 0.86; in assay [6] (protein PFN2, HeLa) it was 1.1. The “fold changes relative to vehicle control” value is reported as 1 in assay [7] (captured protein HNF1B, HeLa); 1.01 in [8] (protein RPS27A, HeLa); 1.04 in assay [9] (protein KIAA1618, HeLa); 0.88 in assay [10] (protein CDC73, HeLa); 1.07 in assay [11] (captured protein ACAD11, HeLa); 1.18 in assay [12] (HeLa, protein MON2). Moreover, the “fold changes relative to vehicle control” value in assay [13] (captured protein AUP1, HeLa) worked out at 0.9.

With `NCCOCCOCC(=O)Nc1nc2ncc(CNc3ccc(C(=O)NC(CCC(=O)O)C(=O)O)cc3)nc2c(=O)[nH]1` (stereo not drawn) [compound 6], the “fold changes relative to vehicle control” value in assay [1] (HeLa, protein BAG2) was 0.97; in assay [2] (setting [14]), 0.87; in assay [3] (HeLa, protein ATP2A2), 1.03; in [4] (HeLa, protein PSMB1) it was 0.94; in [5] (HeLa, captured protein PSMA3), 1.01; in [6] (HeLa, protein PFN2) it was 1.06. Also, the “fold changes relative to vehicle control” value in [7] (HeLa, protein HNF1B) is reported as 0.81; in assay [8] (HeLa, protein RPS27A (UBIQUITIN AND RIBOSOMAL PROTEIN S27A PRECURSOR)), 1.51; in [9] (HeLa, protein KIAA1618), 1.21; in [10] (protein CDC73, HeLa) it was 0.88; in [11] (HeLa, protein ACAD11), 0.95; in assay [12] (HeLa, captured protein MON2), 1.17. Besides, the “fold changes relative to vehicle control” value in assay [13] (HeLa, protein AUP1) is reported as 0.92.

`Nc1nc2[nH]cc(CCc3ccc(C(=O)N[C@@H](CCC(=O)O)C(=O)O)cc3)c2c(=O)[nH]1` [PTX, pemetrexed]: the “fold changes relative to vehicle control” value in assay [1] came out at 0.95; in [2] it was 0.92; in assay [3], 1.03; in [4], 0.78; in assay [5] it was 0.99; in assay [6], 1.01. Besides, the “fold changes relative to vehicle control” value in assay [7] is 0.82; in [8], 1.29; in assay [9], 1.01; in assay [10], 0.76; in assay [11], 0.98; in assay [12], 1.05. In assay [13], the “fold changes relative to vehicle control” value is given as 0.89.

Consider `Nc1nc2c(c(=O)[nH]1)N(C=O)C(CNc1ccc(C(=O)N[C@@H](CCC(=O)O)C(=O)O)cc1)CN2` (stereo partly drawn) [LEU, leucovorin], for which the “fold changes relative to vehicle control” value turned out to be 0.96 in assay [1] (HeLa, protein BAG2); 1.01 in [2] (HeLa, protein PDHB (ISOFORM 1 OF PYRUVATE DEHYDROGENASE E1 COMPONENT SUBUNIT BETA, MIT[…])); 1 in [3] (HeLa, protein ATP2A2); 0.96 in [4] (HeLa, protein PSMB1); 1.02 in [5] (HeLa, captured protein PSMA3); 1.07 in assay [6] (HeLa, protein PFN2). In addition, the “fold changes relative to vehicle control” value amounted to 0.87 in assay [7] (HeLa, protein HNF1B); 1.29 in [8]; 0.87 in assay [9] (HeLa, protein KIAA1618); 0.81 in [10] (protein CDC73, HeLa); 1.12 in assay [11] (HeLa, protein ACAD11); 1.04 in [12] (HeLa, captured protein MON2). Further, in assay [13] (HeLa, protein AUP1), the “fold changes relative to vehicle control” value amounted to 0.83.

On to `CCCCCCOc1ccc(Cc2cnc(N)nc2N)cc1` [compound 1], for which the “fold changes relative to vehicle control” value in assay [1] (captured protein BAG2, HeLa) is 0.9; in [2] (protein PDHB, HeLa) it was 0.97; in assay [3] (HeLa, protein ATP2A2) it was 1.05; in assay [4] (protein PSMB1, HeLa), 1.05; in assay [5] (protein PSMA3, HeLa), 1.04; in assay [6] (protein PFN2, HeLa), 1.23. In addition, the “fold changes relative to vehicle control” value in [7] (captured protein HNF1B, HeLa) is given as 0.64; in [8] (protein RPS27A, HeLa), 1.24; in assay [9] (protein KIAA1618, HeLa), 0.98; in [10] (protein CDC73, HeLa), 1.18; in [11] (captured protein ACAD11, HeLa), 1.02; in assay [12] (HeLa, protein MON2) it was 1.11. In addition, the “fold changes relative to vehicle control” value in assay [13] (captured protein AUP1, HeLa) is given as 0.98.

For the molecule `NCCCNc1ccc(C(=O)NC(CCC(=O)O)C(=O)O)cc1` (stereo not drawn) [compound 7], the “fold changes relative to vehicle control” value was determined as 0.97 in [1] (HeLa, protein BAG2); 0.92 in assay [2] (setting [14]); 0.99 in assay [3] (HeLa, protein ATP2A2); 0.86 in assay [4] (HeLa, protein PSMB1); 0.98 in [5] (HeLa, captured protein PSMA3); 1.15 in [6] (HeLa, protein PFN2). For the same molecule, the “fold changes relative to vehicle control” value in assay [7] (HeLa, protein HNF1B) stood at 1.07; in assay [8], 1.22; in assay [9] (HeLa, protein KIAA1618) it was 1; in assay [10] (protein CDC73, HeLa) it was 0.76; in [11] (HeLa, protein ACAD11), 1.05; in assay [12] (HeLa, captured protein MON2) it was 1.25. Besides, the “fold changes relative to vehicle control” value in assay [13] (HeLa, protein AUP1) stood at 0.9.
